According to US9549558B2, “Herbicidal azines” (BASF SE, priority 2012, dated 2017):

Key:
Assay type in all cases: in vivo
[1] = test system: THLAR (Thlaspi arvense); assay: greenhouse pre-emergence herbicidal test; conditions: 0.125 kg/ha
Procedure, shortened: (§1)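 Seeds were sown in loamy sand with about 3.0% humus, and compounds suspended or emulsified in water were sprayed right after sowing. Pots were kept under transparent hoods until rooting at 10-25° C. or 20-35° C. depending on species, and damage was scored 0-100 after 2 to 4 weeks.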

[2] = test system: MATIN (Matricaria maritima); assay: greenhouse pre-emergence herbicidal test; conditions: 2000 g/ha
Procedure, shortened: as §1

[3] = test system: POAAN (Poa annua); assay: greenhouse pre-emergence herbicidal test
Procedure, shortened: as §1

[4] = test system: AMARE (Amaranthus retroflexus); assay: greenhouse pre-emergence herbicidal test; conditions: 1000 g/ha
Source text: The seeds of the test plants were sown separately for each species. For the pre-emergence treatment, the active ingredients, which had been suspended or emulsified in water, were applied directly after sowing by means of finely distributing nozzles. The containers were irrigated gently to promote germination and growth and subsequently covered with transparent plastic hoods until the plants had rooted. This cover caused uniform germination of the test plants, unless this had been impaired by the active ingredients. Depending on the species, the plants were kept at 10-25° C. or 20-35° C., respectively. The test period extended over 2 to 4 weeks. During this time, the plants were tended, and their response to the individual treatments was evaluated. […] A moderate herbicidal activity is given at values of at least 60, a good herbicidal activity is given at values of at least 70, and a very good herbicidal activity is given at values of at least 85. The plants used in the greenhouse experiments were of the following species: [table]

[5] = test system: APESV (Apera spica-venti); assay: greenhouse pre-emergence herbicidal test; conditions: 1000 g/ha
Procedure, shortened: as §1

[6] = test system: VIOAR (Viola arvensis); assay: greenhouse pre-emergence herbicidal test; conditions: 125 g/ha
Procedure, shortened: as §1

[7] = test system: SETVI (Setaria viridis); assay: greenhouse post-emergence herbicidal test; conditions: 62 g/ha
Procedure, shortened: (§2)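 Post-emergence greenhouse test on plants grown to 3–15 cm in loamy sand (~3.0% humus), sprayed with active ingredient suspended or emulsified in water. Plants held at 10-25 °C or 20-35 °C by species for 2 to 4 weeks, then damage scored visually 0–100 (100 = complete destruction of aerial parts, 0 = no damage).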

[8] = test system: AMARE (Amaranthus retroflexus); assay: greenhouse post-emergence herbicidal test; conditions: 62 g/ha
Procedure, shortened: as §2

`CC(C)(F)c1nc(N)nc(Nc2cc(C(F)(F)F)cc(C(F)(F)F)c2)n1` [Example 46] was tested, and the herbicidal activity [1] was “very good (a very good herbicidal activity is given at values of at least 85)”.
In the case of `CC(O)c1nc(N)nc(Nc2c(F)c(F)c(F)c(F)c2F)n1` (centres unmarked) [Example 69], the herbicidal activity [2] was “very good (a very good herbicidal activity is given at values of at least 85)” and the herbicidal activity ([3]; 2000 g/ha) was “very good (a very good herbicidal activity is given at values of at least 85)”.
In the case of `COc1cc(F)c(Nc2nc(N)nc(C(C)(C)F)n2)c(F)c1` [Example 116], the herbicidal activity [4] was “good (a good herbicidal activity is given at values of at least 70)” and the herbicidal activity [5] was “very good (a very good herbicidal activity is given at values of at least 85)”.
With `CC(C)(F)c1nc(N)nc(Nc2c(F)c(F)c(Cl)c(F)c2F)n1` [Example 128] the herbicidal activity [6] was “good (a good herbicidal activity is given at values of at least 70)” and the herbicidal activity ([3]; 125 g/ha) was “very good (a very good herbicidal activity is given at values of at least 85)”.
`CC(C)(C)C(=O)N(c1nc(N)nc(C(C)(C)C)n1)c1c(F)c(F)c(F)c(F)c1F` [Example 283] was tested, and the herbicidal activity [7] was “good (a good herbicidal activity is given at values of at least 70)” and the herbicidal activity [8] was “very good (a very good herbicidal activity is given at values of at least 85)”.
`CC(=O)N(c1nc(N)nc(C(C)(C)F)n1)c1c(F)c(F)c(F)c(F)c1F` [Example 291] was tested, and the herbicidal activity [2] was “very good (a very good herbicidal activity is given at values of at least 85)” and the herbicidal activity ([3]; 2000 g/ha) was “very good (a very good herbicidal activity is given at values of at least 85)”.
